The values that follow are results of earlier work, collected in patent publication US20090023644A1 (priority 2004, published 2009).

Read-outs that look alike come from different tables or passages of the source.

For series [1] the following is noted: 600 ng/min.
The conditions of series [2]: 8 ng/kg/min IV infusion for 8 hours.
Setting [3] is: IV infusion 10 or 20 minutes at 0.8, 3.2 or 16 ng/kg/min.

With Calcitonin gene-related peptide [CGRP], the “discontinuation of infusion due to nausea, diarrhea, and/or severe facial flushing” value in series [1] (48-hour continuous IV infusion) is reported as “discontinued after 28 hours in 3 out of the 6 patients”. Moreover, in series [1] (pulsed therapy), the “hemodynamic functions such as left ventricular function” value was “improve”; the unfavorable side effects entry was “tachycardia and neurohumoral response were also observed”. For the same substance, the tolerability result in series [1] (pulsed therapy (2-8 hour infusions for two consecutive days)) is “well tolerated”. Also, under setting [3], the cardiac output result is given as “increase”, the systemic vascular resistance result is listed as “decreased” and the tachycardia result is “no tachycardia observed”. Also, where the note is “at lower doses”, the “type of vasodilator behaviour” value is on record as “pure arteriolar vasodilator”. Further, the “type of vasodilator behaviour” value (at the higher dose) is given as “mixed vasodilator”. In series [2], the cardiac output result is listed as “increased”; the “pulmonary and systemic arterial pressure” value was “decreased”; the “time to loss of hemodynamic effects after stopping CGRP infusion” value was not above 30 min; the vascular resistance entry is “decreased”. In series [2] (during treatment), the glomerular filtration entry is “increased” and the renal blood flow entry was “increased”.
